# ChEMBL document CHEMBL1275533, “In vitro antibacterial activity of vertilmicin and its susceptibility to modifications by the recombinant AAC6'-APH2'' enzyme” (2008)
# Activity calls are given as the source filed them. No cut-off for these calls is given here.
# What was measured:
# Pseudomonas sp. [1] = assay: Antibacterial activity against gentamicin-resistant Pseudomonas spp. clinical isolate assessed as susceptible isolates after 18 hrs by agar dilution method; format: functional
# Morganella morganii = assay: Antibacterial activity against non-gentamicin-resistant Morganella morganii clinical isolate assessed as susceptible isolates after 18 hrs by agar dilution method; format: functional
# [2] = test system: Acinetobacter calcoaceticus; assay: Antibacterial activity against non-gentamicin-resistant Acinetobacter calcoaceticus clinical isolate after 18 hrs by agar dilution method; format: functional
# Haemophilus influenzae = assay: Antibacterial activity against non-gentamicin-resistant Haemophilus influenzae clinical isolate after 18 hrs by agar dilution method; format: functional
# Citrobacter freundii [3] = assay: Antibacterial activity against non-gentamicin-resistant Citrobacter freundii clinical isolate assessed as susceptible isolates after 18 hrs by agar dilution method; format: functional
# Citrobacter freundii [4] = assay: Antibacterial activity against gentamicin-resistant Citrobacter freundii clinical isolate assessed as susceptible isolates after 18 hrs by agar dilution method; format: functional
# Serratia marcescens [5] = assay: Antibacterial activity against gentamicin-resistant Serratia marcescens clinical isolate after 18 hrs by agar dilution method; format: functional
# Pseudomonas sp. [6] = assay: Antibacterial activity against non-gentamicin-resistant Pseudomonas spp. clinical isolate assessed as susceptible isolates after 18 hrs by agar dilution method; format: functional
# Citrobacter koseri = assay: Antibacterial activity against non-gentamicin-resistant Citrobacter diversus clinical isolate after 18 hrs by agar dilution method; format: functional
# Enterobacter cloacae = assay: Antibacterial activity against gentamicin-resistant Enterobacter cloacae clinical isolate assessed as susceptible isolates after 18 hrs by agar dilution method; format: functional
# [7] = test system: Staphylococcus epidermidis; assay: Antibacterial activity against gentamicin-resistant Staphylococcus epidermidis clinical isolate after 18 hrs by agar dilution method; format: functional
# Citrobacter freundii [8] = assay: Antibacterial activity against gentamicin-resistant Citrobacter freundii clinical isolate after 18 hrs by agar dilution method; format: functional
# Serratia marcescens [9] = assay: Antibacterial activity against non-gentamicin-resistant Serratia marcescens clinical isolate after 18 hrs by agar dilution method; format: functional
# Escherichia coli [10] = assay: Antibacterial activity against non-gentamicin-resistant Escherichia coli clinical isolate after 18 hrs by agar dilution method; format: functional
# Escherichia coli [11] = assay: Antibacterial activity against gentamicin-resistant Escherichia coli clinical isolate assessed as susceptible isolates after 18 hrs by agar dilution method; format: functional
# Proteus mirabilis [12] = assay: Antibacterial activity against gentamicin-resistant Proteus mirabilis clinical isolate after 18 hrs by agar dilution method; format: functional
# Klebsiella aerogenes = assay: Antibacterial activity against gentamicin-resistant Enterobacter aerogenes clinical isolate assessed as susceptible isolates after 18 hrs by agar dilution method; format: functional
# [13] = test system: Haemophilus parainfluenzae; assay: Antibacterial activity against non-gentamicin-resistant Haemophilus parainfluenzae clinical isolate assessed as susceptible isolates after 18 hrs by agar dilution method; format: functional, organism-based
# Serratia marcescens [14] = assay: Antibacterial activity against gentamicin-resistant Serratia marcescens clinical isolate assessed as susceptible isolates after 18 hrs by agar dilution method; format: functional
# [15] = test system: Acinetobacter calcoaceticus; assay: Antibacterial activity against gentamicin-resistant Acinetobacter calcoaceticus clinical isolate assessed as susceptible isolates after 18 hrs by agar dilution method; format: functional
# Proteus mirabilis [16] = assay: Antibacterial activity against gentamicin-resistant Proteus mirabilis clinical isolate assessed as susceptible isolates after 18 hrs by agar dilution method; format: functional
# [17] = test system: Escherichia coli BL21(DE3); assay: Ratio of Vmax to Km for AAC(6')-APH(2'') in Escherichia coli BL21(DE3) assessed as oxidation of NADH by pyruvate kinase relative to netilmicin
# [18] = test system: Escherichia coli BL21(DE3); assay: Phosphorylation activity of AAC(6')-APH(2'') in Escherichia coli BL21(DE3) assessed as oxidation of NADH by pyruvate kinase relative to verdamicin
# [19] = test system: Escherichia coli BL21(DE3); assay: Phosphorylation activity of AAC(6')-APH(2'') in Escherichia coli BL21(DE3) assessed as oxidation of NADH by pyruvate kinase
Compound,Activity (Pseudomonas sp. [1]) [%],Activity (Morganella morganii) [%],MIC50 [2] [µg/mL],MIC90 [2] [µg/mL],MIC50 (Haemophilus influenzae) [µg/mL],MIC90 (Haemophilus influenzae) [µg/mL],Activity (Citrobacter freundii [3]) [%],Activity (Citrobacter freundii [4]) [%],MIC50 (Serratia marcescens [5]) [µg/mL],MIC90 (Serratia marcescens [5]) [µg/mL],Activity (Pseudomonas sp. [6]) [%],MIC50 (Citrobacter koseri) [µg/mL],MIC90 (Citrobacter koseri) [µg/mL],Activity (Enterobacter cloacae) [%],MIC50 [7] [µg/mL],MIC90 [7] [µg/mL],MIC50 (Citrobacter freundii [8]) [µg/mL],MIC90 (Citrobacter freundii [8]) [µg/mL],MIC50 (Serratia marcescens [9]) [µg/mL],MIC90 (Serratia marcescens [9]) [µg/mL],other results
NCC[C@H](O)C(=O)N[C@@H]1C[C@H](N)[C@@H](O[C@H]2O[C@H](CN)[C@@H](O)[C@H](O)[C@H]2O)[C@H](O)[C@H]1O[C@H]1O[C@H](CO)[C@@H](O)[C@H](N)[C@H]1O [AMIKACIN],7.7,96,0.5,2,8,16,100,31.6,> 128,> 128,90.9,1,2,63.2,4,64,2,32,1,2,MIC50 (Escherichia coli [10]): 1 µg/mL; MIC90 (Escherichia coli [10]): 2 µg/mL; Activity (Escherichia coli [11]): 93%; MIC50 (Proteus mirabilis [12]): 4 µg/mL; MIC90 (Proteus mirabilis [12]): > 128 µg/mL; Activity (Klebsiella aerogenes): 55%; Activity [13]: inactive; Activity (Serratia marcescens [14]): 30%; Activity [15]: 48%; Activity (Proteus mirabilis [16]): 63.6%
CCN[C@@H]1C[C@H](N)[C@@H](O[C@H]2OC(CN)=CC[C@H]2N)[C@H](O)[C@H]1O[C@H]1OC[C@](C)(O)[C@H](NC)[C@H]1O [NETILMICIN],0,100,1,16,1,2,83.3,47.4,> 128,> 128,72.7,0.5,0.5,5.3,2,32,8,> 128,1,4,Vmax/Km [17]: 7.4%; Vmax [18]: 55%; MIC50 (Escherichia coli [10]): 0.5 µg/mL; MIC90 (Escherichia coli [10]): 0.5 µg/mL; Activity (Escherichia coli [11]): 66.7%; MIC50 (Proteus mirabilis [12]): 16 µg/mL; MIC90 (Proteus mirabilis [12]): > 128 µg/mL; Km [19]: 308 µM; Activity (Klebsiella aerogenes): 30%; Activity [13]: inactive; Activity (Serratia marcescens [14]): 10%; Activity [15]: 20%; Activity (Proteus mirabilis [16]): 36.4%
